For one data set, the target named is T1, NPR-B (Mus musculus, UniProt Q6VVW5).
T1 construct: Murine NIH3T3 cells express endogenously the CNP signaling receptor, NPR-B; endogenous in cells; host or cells: NIH3T3 (murine fibroblasts)
T1 sequence (Q6VVW5 17-1047): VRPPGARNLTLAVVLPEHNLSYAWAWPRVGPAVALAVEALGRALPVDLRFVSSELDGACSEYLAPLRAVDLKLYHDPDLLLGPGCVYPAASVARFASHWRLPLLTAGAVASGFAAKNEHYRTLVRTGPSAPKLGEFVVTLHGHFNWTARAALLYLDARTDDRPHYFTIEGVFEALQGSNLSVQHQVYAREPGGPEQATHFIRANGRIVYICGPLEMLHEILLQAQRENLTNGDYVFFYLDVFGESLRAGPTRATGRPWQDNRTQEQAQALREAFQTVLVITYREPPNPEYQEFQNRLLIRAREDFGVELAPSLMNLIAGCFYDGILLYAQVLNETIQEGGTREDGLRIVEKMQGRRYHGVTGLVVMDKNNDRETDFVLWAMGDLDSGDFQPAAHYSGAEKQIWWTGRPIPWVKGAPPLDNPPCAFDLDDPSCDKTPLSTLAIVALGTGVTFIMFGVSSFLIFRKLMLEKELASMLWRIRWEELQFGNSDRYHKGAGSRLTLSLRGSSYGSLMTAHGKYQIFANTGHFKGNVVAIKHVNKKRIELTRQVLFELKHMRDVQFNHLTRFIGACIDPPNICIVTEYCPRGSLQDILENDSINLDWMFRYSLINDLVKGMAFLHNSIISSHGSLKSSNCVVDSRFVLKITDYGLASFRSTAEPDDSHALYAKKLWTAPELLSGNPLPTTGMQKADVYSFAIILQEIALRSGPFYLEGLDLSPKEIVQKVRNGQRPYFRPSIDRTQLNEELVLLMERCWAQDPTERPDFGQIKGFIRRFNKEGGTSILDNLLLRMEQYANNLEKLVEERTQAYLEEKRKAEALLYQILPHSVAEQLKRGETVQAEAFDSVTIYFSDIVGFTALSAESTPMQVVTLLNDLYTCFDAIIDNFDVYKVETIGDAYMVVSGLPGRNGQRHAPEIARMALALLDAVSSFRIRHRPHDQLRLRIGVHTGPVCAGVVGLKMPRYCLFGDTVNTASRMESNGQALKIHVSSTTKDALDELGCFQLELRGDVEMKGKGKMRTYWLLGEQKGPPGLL
The experiment in a line: Stimulation of cGMP production in NIH3T3 cells. It counts as cell-based, Murine. The note with it: for cGMP response relative to 1 uM CNP22 (%) at 0.01 µM: read-out: cGMP Response rel. to 1 uM CNP22, 10 nM; for cGMP response relative to 1 uM CNP22 (%) at 1 µM: read-out: cGMP Response rel. to 1 uM CNP22, 1 uM.

Data set [1] concerns the target neutral endopeptidase (NEP) (Homo sapiens, UniProt P08473). The experiment in a line: in vitro. Conditions: human, pH 7. The method, then:
To determine the effects of amino acid substitutions, amino acid extensions, backbone modifications, side chain modifications and PEGylation on the susceptibility of CNP variants to neutral endopeptidase (NEP) cleavage, peptide cleavage assays were carried out using an in vitro assay that monitored disappearance of the non-cleaved CNP variant.
Recombinant human NEP (1 ug/mL final concentration) was added to 100 uM CNP variant diluted in 0.1 M Tris, pH 7. The reaction mixture was incubated at 37° C. for various periods of time, and the reaction was quenched with EDTA (10 mM final) followed by heat denaturation. The reaction mixture was reduced and then the reaction products were analyzed using HPLC and mass spectroscopy. The half-life of the CNP variant was calculated based on the disappearance of intact CNP variant over time.

Setting [2] is: NIH3T3 cells, 10 nM natriuretic peptide, normalized to cell number and cGMP production with 1 uM wtCNP22.
[3] abbreviates: NIH3T3 cells, 1 uM natriuretic peptide, normalized to cell number and cGMP production with 1 uM wtCNP22.
Where [4] appears, read: recombinant human neutral endopeptidase (NEP).

The structures appear in SMILES notation. Like-named read-outs stand apart in the source and are kept apart here. Bridge positions count the residues as written; N and C are the ends. Peptide text beside a SMILES is read from it. Some results are limits rather than exact numbers.

In general, half-life refers to how long it takes for the measured level to halve.

Chain of neutral endopeptidase (NEP) (P08473 whole entry): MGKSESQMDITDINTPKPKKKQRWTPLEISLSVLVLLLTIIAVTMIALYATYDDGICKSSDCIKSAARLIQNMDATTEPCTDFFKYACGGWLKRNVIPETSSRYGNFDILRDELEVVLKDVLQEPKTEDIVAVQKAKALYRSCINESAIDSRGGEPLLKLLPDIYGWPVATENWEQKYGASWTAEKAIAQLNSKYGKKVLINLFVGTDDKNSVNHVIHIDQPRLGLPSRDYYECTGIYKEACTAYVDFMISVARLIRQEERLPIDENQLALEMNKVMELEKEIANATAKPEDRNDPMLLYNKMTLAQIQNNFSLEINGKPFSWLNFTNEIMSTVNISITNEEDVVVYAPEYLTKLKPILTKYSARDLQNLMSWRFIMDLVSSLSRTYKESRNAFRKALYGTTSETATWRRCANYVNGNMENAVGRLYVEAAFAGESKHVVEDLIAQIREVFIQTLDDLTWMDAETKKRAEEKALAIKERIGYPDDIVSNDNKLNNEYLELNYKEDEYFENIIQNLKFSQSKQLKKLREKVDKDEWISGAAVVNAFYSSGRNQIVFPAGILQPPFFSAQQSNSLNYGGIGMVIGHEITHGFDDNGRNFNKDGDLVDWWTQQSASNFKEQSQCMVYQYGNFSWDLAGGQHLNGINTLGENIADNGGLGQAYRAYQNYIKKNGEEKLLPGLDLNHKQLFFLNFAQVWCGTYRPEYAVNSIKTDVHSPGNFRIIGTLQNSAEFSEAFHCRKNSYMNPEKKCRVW

With `CC[C@H](C)[C@@H]1NC(=O)[C@H](CCCNC(=N)N)NC(=O)[C@H](CC(=O)O)NC(=O)[C@H](CC(C)C)NC(=O)[C@H](CCCCN)NC(=O)[C@H](CC(C)C)NC(=O)CNC(=O)[C@H](Cc2ccccc2)NC(=O)[C@@H](NC(=O)CNC(=O)[C@H](CCCCN)NC(=O)[C@H](CO)NC(=O)[C@H](CC(C)C)NC(=O)CNC(=O)[C@H](CCCNC(=N)N)NC(=O)[C@H](C)NC(=O)[C@H](Cc2c[nH]c3ccccc23)NC(=O)[C@H](C)NC(=O)[C@H](C)NC(=O)[C@H](CCCNC(=N)N)NC(=O)[C@H](CO)NC(=O)[C@H](CCCCN)NC(=O)[C@@H](NC(=O)[C@H](CC(=O)O)NC(=O)[C@@H](NC(=O)[C@H](CCCNC(=N)N)NC(=O)[C@H](CC(C)C)NC(=O)[C@@H](N)CC(=O)O)C(C)C)[C@@H](C)O)CSSC[C@@H](C(=O)O)NC(=O)CNC(=O)[C@H](CC(C)C)NC(=O)CNC(=O)[C@H](CO)NC(=O)[C@H](CCSC)NC(=O)[C@H](CO)NC(=O)CNC1=O` [CC] (H-DLRVDTKSRAAWARGLSKGCFGLKLDRIGSMSGLGC-OH; disulfide 20-36 (inferred); N-terminus and C-terminus assumed), the cGMP response relative to 1 uM CNP22 (%) at 0.01 µM at NPR-B (setting [2]) was 34%. Also, on NPR-B (setting [3]), the cGMP response relative to 1 uM CNP22 (%) at 1 µM stood at 101%. The half-life at 100 uM in data set [1] is > 2.67 h.

`CC[C@H](C)[C@@H]1NC(=O)[C@H](CCCNC(=N)N)NC(=O)[C@H](CC(=O)O)NC(=O)[C@H](CC(C)C)NC(=O)[C@H](CCCCN)NC(=O)[C@H](CC(C)C)NC(=O)CNC(=O)[C@H](Cc2ccccc2)NC(=O)[C@@H](NC(=O)CNC(=O)[C@H](CCCCN)NC(=O)[C@H](CO)NC(=O)[C@H](CC(C)C)NC(=O)CNC(=O)CCOCCOCCOCCOCCOCCOCCOCCOCCOCCOCCOCCOCCNC(=O)CCCC[C@@H]2SC[C@@H]3NC(=O)N[C@@H]32)CSSC[C@@H](C(=O)O)NC(=O)CNC(=O)[C@H](CC(C)C)NC(=O)CNC(=O)[C@H](CO)NC(=O)[C@H](CCSC)NC(=O)[C@H](CO)NC(=O)CNC1=O` [(PEO12)-Biotin-CNP22]: at NPR-B (NIH3T3, […]), the cGMP response relative to 1 uM CNP22 (%) at 0.01 µM amounted to 19% and the cGMP response relative to 1 uM CNP22 (%) at 1 µM came out at 81%. Also, the half-life at 100 uM in data set [1] is 2.33 h.

Take `CC[C@H](C)[C@@H]1NC(=O)[C@H](CCCNC(=N)N)NC(=O)[C@H](CC(=O)O)NC(=O)[C@H](CC(C)C)NC(=O)[C@H](CCCCN)NC(=O)[C@H](CC(C)C)NC(=O)CNC(=O)[C@H](Cc2ccccc2)NC(=O)[C@@H](NC(=O)CNC(=O)[C@H](CCCNC(=N)N)NC(=O)[C@H](CO)NC(=O)[C@H](CC(C)C)NC(=O)CNC(=O)[C@H](CO)NC(=O)[C@H](CO)NC(=O)[C@H](CC(N)=O)NC(=O)[C@H](C)NC(=O)CN)CSSC[C@@H](C(=O)O)NC(=O)CNC(=O)[C@H](CC(C)C)NC(=O)CNC(=O)[C@H](CO)NC(=O)[C@H](CCSC)NC(=O)[C@H](CO)NC(=O)CNC1=O` [CG] (H-GANSSGLSRGCFGLKLDRIGSMSGLGC-OH; disulfide 11-27 (inferred); N-terminus and C-terminus assumed): at NPR-B (setting [2]), the cGMP response relative to 1 uM CNP22 (%) at 0.01 µM turned out to be 27 ± 1%. Besides, the cGMP response relative to 1 uM CNP22 (%) at 1 µM on NPR-B (setting [3]) amounted to 88 ± 1%. Moreover, the half-life at 100 uM in data set [1] was 1.58 h.

Take `CC[C@H](C)[C@@H]1NC(=O)[C@H](CCCNC(=N)N)NC(=O)[C@H](CC(=O)O)NC(=O)[C@H](CC(C)C)NC(=O)[C@H](CCCCN)NC(=O)[C@H](CC(C)C)NC(=O)[C@H]([C@@H](C)O)NC(=O)[C@H](Cc2ccccc2)NC(=O)[C@@H](NC(=O)CNC(=O)[C@H](CCCNC(=N)N)NC(=O)[C@H](CO)NC(=O)[C@H](CC(C)C)NC(=O)CN)CSSC[C@@H](C(=O)O)NC(=O)CNC(=O)[C@H](CC(C)C)NC(=O)CNC(=O)[C@H](CO)NC(=O)[C@H](CCSC)NC(=O)[C@H](CO)NC(=O)CNC1=O` [AC] (H-GLSRGCFTLKLDRIGSMSGLGC-OH; disulfide 6-22 (inferred); N-terminus and C-terminus assumed): at NPR-B (setting [2]), the cGMP response relative to 1 uM CNP22 (%) at 0.01 µM came out at 11 ± 2%. Besides, the cGMP response relative to 1 uM CNP22 (%) at 1 µM at NPR-B (setting [3]) was found to be 66 ± 16%. For the same molecule, the half-life at 100 uM in data set [1] (setting [4]) came to 1.33 h.

On to `CC[C@H](C)[C@@H]1NC(=O)[C@H](CCCNC(=N)N)NC(=O)[C@H](CC(=O)O)NC(=O)[C@H](CC(C)C)NC(=O)[C@H](CCCCN)NC(=O)[C@H](CC(C)C)NC(=O)CNC(=O)[C@H](Cc2ccccc2)NC(=O)[C@@H](NC(=O)CNC(=O)[C@H](CCCCN)NC(=O)[C@H](CO)NC(=O)[C@H](CC(C)C)NC(=O)CNC(=O)[C@H](CCCCN)NC(=O)[C@H](CCCCN)NC(=O)[C@H](CC(N)=O)NC(=O)[C@H](C)NC(=O)CNC(=O)[C@H](CCCCN)NC(=O)[C@H](Cc2ccc(O)cc2)NC(=O)[C@H](CCCCN)NC(=O)[C@H](CCCNC(=N)N)NC(=O)[C@H](C)NC(=O)[C@H](CC(N)=O)NC(=O)[C@@H]2CCCN2C(=O)[C@H](Cc2c[nH]cn2)NC(=O)[C@H](CCC(=O)O)NC(=O)[C@@H](N)CCC(N)=O)CSSC[C@@H](C(=O)O)NC(=O)CNC(=O)[C@H](CC(C)C)NC(=O)CNC(=O)[C@H](CO)NC(=O)[C@H](CCSC)NC(=O)[C@H](CO)NC(=O)CNC1=O` [BL], for which the “cGMP Response rel. to 1 uM CNP22, 10 nM” value on NPR-B (setting [2]) amounted to 43 ± 15. Also, the “cGMP Response rel. to 1 uM CNP22, 1 uM” value on NPR-B (setting [3]) is on record as 97 ± 27. Also, the half-life at 100 uM in data set [1] is > 2.67 h.

Turning to `CC[C@H](C)[C@@H]1NC(=O)[C@H](CCCNC(=N)N)NC(=O)[C@H](CC(=O)O)NC(=O)[C@H](CC(C)C)NC(=O)[C@H](CCCCN)NC(=O)[C@H](CC(C)C)NC(=O)CNC(=O)[C@H](Cc2ccccc2)NC(=O)[C@@H](NC(=O)CNC(=O)[C@H](CCCNC(=N)N)NC(=O)[C@H](CO)NC(=O)[C@H](CC(C)C)NC(=O)CN)CSSC[C@@H](C(=O)O)NC(=O)CNC(=O)[C@H](CC(C)C)NC(=O)CNC(=O)[C@H](CO)NC(=O)[C@H](CCSC)NC(=O)[C@H](CO)NC(=O)CNC1=O` [AH] (H-GLSRGCFGLKLDRIGSMSGLGC-OH; disulfide 6-22 (inferred); N-terminus and C-terminus assumed), at NPR-B (setting [2]), the cGMP response relative to 1 uM CNP22 (%) at 0.01 µM amounted to 59%. In addition, the cGMP response relative to 1 uM CNP22 (%) at 1 µM on NPR-B (setting [3]) is 121%. For the same molecule, the half-life at 100 uM in data set [1] (setting [4]) came out at 1.33 h.

Turning to `CC[C@H](C)[C@@H]1NC(=O)[C@H](CCCNC(=N)N)NC(=O)[C@H](CC(=O)O)NC(=O)[C@H](CC(C)C)NC(=O)[C@H](CCCCN)NC(=O)[C@H](CC(C)C)NC(=O)CNC(=O)[C@H](Cc2ccccc2)NC(=O)[C@@H](NC(=O)CNC(=O)[C@H](CCCCN)NC(=O)[C@H](CO)NC(=O)[C@H](CC(C)C)NC(=O)CNC(=O)CCCC(=O)NCCOCCOCCOCCOCCC(=O)NC(COCCC(=O)NCCOCCOCCOCCOCCOCCOCCOCCOCCOCCOCCOCCOC)(COCCC(=O)NCCOCCOCCOCCOCCOCCOCCOCCOCCOCCOCCOCCOC)COCCC(=O)NCCOCCOCCOCCOCCOCCOCCOCCOCCOCCOCCOCCOC)CSSC[C@@H](C(=O)O)NC(=O)CNC(=O)[C@H](CC(C)C)NC(=O)CNC(=O)[C@H](CO)NC(=O)[C@H](CCSC)NC(=O)[C@H](CO)NC(=O)CNC1=O` [PEO4-(PEO12)3 (branched)-CNP22], on NPR-B (setting [2]), the cGMP response relative to 1 uM CNP22 (%) at 0.01 µM is 17 ± 1%. For the same molecule, on NPR-B (setting [3]), the cGMP response relative to 1 uM CNP22 (%) at 1 µM came to 52 ± 6%. Further, the half-life at 100 uM in data set [1] was > 2.67 h.

The values above are taken from patent US8377884B2, “Variants of C-type natriuretic peptides” (Biomarin Pharmaceutical Inc., priority 2007, dated 2013).
